Laboratory results taken from ChEMBL document CHEMBL1201862, “PubChem BioAssay data set” (2004).
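Exposure lasted 48 hours, with cells grown in 96-well plates and compounds tested at five concentrations. GI50 = concentration required for 50% inhibition of growth.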 Activity calls are given as the source filed them. Cut-off read from the data, not from the text of the source: active = GI50 up to about 1.1 µM and inactive = higher.

Columns and labels:
Assay in all cases: NCI tumour cell line growth inhibition, 48 h
MCF7 = system: MCF7
SW-620 = system: SW-620
UACC-62 = system: UACC-62
NCI-H460 = system: NCI-H460
OVCAR-4 = system: OVCAR-4
SR = system: SR
LOX IMVI = system: LOX IMVI
A549 = system: A549
KM12 = system: KM12
IGROV-1 = system: IGROV-1
T47D = system: T47D
PC-3 = system: PC-3
MDA-N = system: MDA-N
HT-29 = system: HT-29
SNB-19 = system: SNB-19
786-0 = system: 786-0
SK-MEL-5 = system: SK-MEL-5
NCI-H226 = system: NCI-H226
Hs-578T = system: Hs-578T
MDA-MB-231 = system: MDA-MB-231

Measured: GI50

O=C1C(Cl)=C(Cl)C(=O)N1c1ccc(F)cc1 [FLUOROIMIDE]
inactive: MCF7 20.7 µM | SW-620 16.9 µM | UACC-62 14.7 µM | NCI-H460 > 83.6 µM | OVCAR-4 16.3 µM | SR 6.98 µM | LOX IMVI 16.5 µM | A549 97.9 µM | KM12 20.8 µM | IGROV-1 18.6 µM | T47D 17.8 µM | PC-3 16.3 µM | MDA-N 19.5 µM | HT-29 22.5 µM | SNB-19 > 58.3 µM | 786-0 16.4 µM | SK-MEL-5 38.3 µM | NCI-H226 42.7 µM | Hs-578T 28.1 µM | MDA-MB-231 17.1 µM

C/C(=N\O)c1cccc[n+]1Cc1ccccc1
inactive: MCF7 > 100 µM | SW-620 > 100 µM | UACC-62 > 100 µM | NCI-H460 > 100 µM | OVCAR-4 > 100 µM | SR > 100 µM | LOX IMVI > 100 µM | A549 > 100 µM | KM12 > 100 µM | IGROV-1 > 100 µM | T47D > 100 µM | PC-3 > 100 µM | MDA-N > 100 µM | HT-29 > 100 µM | SNB-19 > 100 µM | 786-0 > 100 µM | SK-MEL-5 > 100 µM | NCI-H226 > 100 µM | Hs-578T > 100 µM | MDA-MB-231 > 100 µM

CC1C(=O)C23OC[C@@]1(C)C1(O)CC[C@@H](C)[C@]21CC3=O (stereo partly specified)
inactive: MCF7 > 100 µM | SW-620 > 100 µM | UACC-62 > 100 µM | NCI-H460 > 100 µM | OVCAR-4 > 100 µM | SR > 100 µM | LOX IMVI > 100 µM | A549 > 100 µM | KM12 > 100 µM | IGROV-1 > 100 µM | T47D > 100 µM | PC-3 > 100 µM | MDA-N > 100 µM | HT-29 > 100 µM | SNB-19 > 100 µM | 786-0 > 100 µM | SK-MEL-5 > 100 µM | NCI-H226 > 100 µM | Hs-578T > 100 µM | MDA-MB-231 > 100 µM

Cc1nc2ccc(/N=N/N(C)C)cc2[nH]1
inactive: MCF7 > 100 µM | SW-620 > 100 µM | UACC-62 > 100 µM | NCI-H460 > 100 µM | OVCAR-4 > 100 µM | SR > 100 µM | LOX IMVI > 100 µM | A549 > 100 µM | KM12 > 100 µM | IGROV-1 > 100 µM | T47D > 100 µM | PC-3 > 100 µM | MDA-N > 100 µM | HT-29 > 100 µM | SNB-19 > 100 µM | 786-0 > 100 µM | SK-MEL-5 > 100 µM | NCI-H226 > 100 µM | Hs-578T > 100 µM | MDA-MB-231 > 100 µM

CCCCc1c2c(nc3c1CCC/C3=C\c1ccccc1)C(=O)C(CN(C)C)CC2 (stereo unspecified)
inactive: MCF7 3.37 µM | SW-620 10.4 µM | UACC-62 20.3 µM | NCI-H460 17.3 µM | OVCAR-4 14.3 µM | SR 2.76 µM | LOX IMVI 16.2 µM | A549 19.9 µM | KM12 16.9 µM | IGROV-1 18.3 µM | T47D 3.61 µM | PC-3 14.1 µM | MDA-N 7.28 µM | HT-29 12.4 µM | SNB-19 18.3 µM | 786-0 10 µM | SK-MEL-5 16.9 µM | NCI-H226 22.6 µM | Hs-578T 17.9 µM | MDA-MB-231 11.1 µM

Cc1ccc(S(=O)(=O)ON2C(=O)c3c(N)c(C#N)c(-c4ccccc4)c(-c4ccccc4)c3C2=O)cc1
inactive: MCF7 16 µM | SW-620 14.6 µM | UACC-62 17.1 µM | NCI-H460 35.6 µM | OVCAR-4 21.9 µM | SR 8.39 µM | LOX IMVI 15.8 µM | A549 19.4 µM | KM12 51.1 µM | IGROV-1 15.8 µM | T47D 18.2 µM | PC-3 15.7 µM | MDA-N 16.4 µM | HT-29 19.1 µM | SNB-19 24 µM | 786-0 15.8 µM | SK-MEL-5 17.1 µM | NCI-H226 15.9 µM | Hs-578T 71.3 µM | MDA-MB-231 19.3 µM

O=c1[nH]nc(Cc2ccccc2)n1/N=C/c1ccncc1
inactive: MCF7 > 100 µM | SW-620 > 100 µM | NCI-H460 > 100 µM | OVCAR-4 > 100 µM | SR > 100 µM | LOX IMVI > 100 µM | A549 > 100 µM | KM12 > 100 µM | IGROV-1 > 100 µM | T47D > 100 µM | PC-3 > 100 µM | MDA-N > 100 µM | HT-29 > 100 µM | SNB-19 > 100 µM | 786-0 > 100 µM | SK-MEL-5 64.4 µM | NCI-H226 > 100 µM | Hs-578T 82.2 µM | MDA-MB-231 > 100 µM

N#Cc1nc(/C=C/c2cccnc2)oc1N
inactive: MCF7 > 100 µM | SW-620 > 100 µM | UACC-62 > 100 µM | NCI-H460 > 100 µM | OVCAR-4 > 100 µM | SR > 100 µM | LOX IMVI > 100 µM | A549 28.4 µM | KM12 > 100 µM | IGROV-1 > 100 µM | T47D > 100 µM | PC-3 > 100 µM | MDA-N > 100 µM | HT-29 > 100 µM | SNB-19 > 100 µM | 786-0 > 100 µM | SK-MEL-5 > 100 µM | NCI-H226 > 100 µM | Hs-578T > 100 µM | MDA-MB-231 > 100 µM

COc1ccc2c(O)c(Oc3ccc(Cl)cc3)c(=O)oc2c1
inactive: MCF7 > 100 µM | SW-620 > 100 µM | NCI-H460 > 100 µM | OVCAR-4 > 100 µM | SR > 100 µM | LOX IMVI > 100 µM | A549 > 100 µM | KM12 > 100 µM | IGROV-1 60 µM | T47D 55.6 µM | PC-3 > 100 µM | MDA-N > 100 µM | HT-29 > 100 µM | SNB-19 31.4 µM | 786-0 > 100 µM | SK-MEL-5 > 100 µM | NCI-H226 > 100 µM | Hs-578T > 100 µM | MDA-MB-231 > 100 µM

CCOc1cc(NC(C)=O)ccc1C(=O)NN1C(=O)C(Oc2ccccc2)C1c1ccccc1 (stereo unspecified)
inactive: MCF7 15.1 µM | SW-620 > 100 µM | UACC-62 45 µM | NCI-H460 15.3 µM | OVCAR-4 > 100 µM | SR 4.15 µM | LOX IMVI 85.3 µM | KM12 > 100 µM | IGROV-1 > 100 µM | T47D 44.4 µM | PC-3 > 100 µM | MDA-N > 100 µM | HT-29 > 100 µM | 786-0 > 100 µM | SK-MEL-5 42.8 µM | NCI-H226 57.8 µM | Hs-578T > 100 µM | MDA-MB-231 > 100 µM
